The source of these data is patent US20070293576A1, “Pharmaceutical Methods, Dosing Regimes And Dosage Forms For The Treatment Of Alzheimer's Disease” (Myriad Genetics, Incorporated, priority 2003, published 2007).

Where two headings read alike, the source gives them in different places.

For series [1], the target named is cytochrome P450 (CYP) 2C9 (Homo sapiens, UniProt P11712). The following applies: cited from earlier work.
For series [2], the system named is patients with Alzheimer's disease. The following applies: clinical trials; rofecoxib at 25 mg daily; cited from earlier work.
Series [3] can be described thus: Phase I pharmacokinetic study of R-flurbiprofen in plasma, one compartment model. It is filed as in vivo, human. Conditions: oral capsules, plasma Study Day 21, mean value one compartment model. The protocol:
The study is conducted as a double-blind, placebo-controlled, sequential, ascending dose level, multiple dose study, including men and women. Sixteen subjects are assigned to each of three sequential cohorts: 200 mg BID, 400 mg BID, and 800 mg BID of R-flurbiprofen, each with matched placebo BID. Each cohort contains a 3:1 ratio of assignment to active drug (n=12) versus placebo (n=4), resulting in 4 treatment groups of 12 subjects each after combining the 3 placebo groups. The study is balanced by site and stratified by gender. Subjects receive either R-flurbiprofen at the specified dose or a matched placebo orally for 21 days. Blood and urine samples are collected for laboratory safety data at Study Day 1, Study Day 21, and End of Study (30-Day Follow Up) visit. Blood and CSF are collected for pharmacokinetic and biomarker measures at Study Day 1 and after 21 days of treatment with the study drug.
Subjects are instructed to take 1 capsule from Bottle A and 1 capsule from Bottle B 2 times per day (BID) for 20 days; Bottles A and B may contain R-flurbiprofen or placebo. The intraday dosing interval is approximately 12 hours, and the study drug is taken at approximately the same time each day. After 20 days (i.e., on Study Day 21), study participants undergo a pharmacokinetic study, as described below. Daily doses for the 4 groups of the study are: • 400 mg R-flurbiprofen (given as one 200 mg capsule and 1 placebo capsule BID) • 800 mg R-flurbiprofen (given as one 400 mg capsule and 1 placebo capsule BID) • 1600 mg R-flurbiprofen (given as two 400 mg capsules BID)
Blood and urine samples are collected on Study Day 21 from fasted participants for clinical chemistries, hematology, coagulation parameters, and urinalysis. Blood samples are collected on Study Day 21 at 0.5, 1, 2, 4, and 6 hours, and, if possible, 8 and 24 hours, after administration of the final dose of study drug. The total amount of blood collected for the pharmacokinetic analyses is approximately 64 mL. All blood samples for PK/PD analysis are analyzed for both R-flurbiprofen and S-flurbiprofen, and the extent of bioinversion of R-flurbiprofen to S-flurbiprofen is assessed.
The plasma concentration time profile of R-flurbiprofen is analyzed using nonlinear modeling, and preliminary estimates of PK parameters are obtained. Estimates include individual and mean half-life, clearance, AUC, Cmax, Tmax, and average steady-state concentration. Cerebrospinal fluid levels of R-flurbiprofen are summarized. If plasma concentrations over time are similar to those found in other patient populations, Bayesian estimation is used to estimate population PK parameters, allowing the PK parameters observed in this population to be evaluated in the context of data observed in additional clinical studies. Estimates include the mean and individual PK parameters as well as the magnitude of intersubject variability.
A clinical trial was conducted as described in Example 5, above. Pharmacokinetic parameters were determined using WinNonlin® Version 4.0 (Pharsight, Mountain View, Calif.). A one compartment model with first order elimination and uniform weighting was used with WinNonlin estimated parameter boundaries for absorption rate (K01), elimination rate (K10) and volume (V_F). Individual and mean value parameters derived include K10 half-life, Cmax (maximum plasma concentration), Tmax (time of maximum plasma concentration), AUC (area under the plasma time and concentration curve), and Cl_F (clearance). The model calculates the concentration at time T as follows: C(T)=D*K01/V/(K01−K10)*(EXP(−K10*T)−EXP(−K01*T)) (1), where C(T) is concentration at time T; D=dose; V is volume; V_F is volume of distribution over systemic availability; K01 is the absorption rate constant; K10 is elimination rate constant; CL_F is clearance over systemic availability; and T is time. […]

Series [4] deals with Aβ42. The following applies: transgenic mouse model; cited from earlier work.
The test system of series [5] is Aβ42. Conditions: CHO cells; cited from earlier work.
Series [6] relates to COX. The following applies: cited from earlier work.
The subject of series [7] is patients having mild cognitive impairment. Conditions: cited from earlier work.
The mark [8] stands for this setting: 200 mg BID group, modeled as single 200 mg dose.
Where [9] appears, read: 400 mg BID group, modeled as single 400 mg dose.
The mark [10] stands for this setting: 800 mg BID group, modeled as single 800 mg dose.

Chain of cytochrome P450 (CYP) 2C9 (P11712 whole entry): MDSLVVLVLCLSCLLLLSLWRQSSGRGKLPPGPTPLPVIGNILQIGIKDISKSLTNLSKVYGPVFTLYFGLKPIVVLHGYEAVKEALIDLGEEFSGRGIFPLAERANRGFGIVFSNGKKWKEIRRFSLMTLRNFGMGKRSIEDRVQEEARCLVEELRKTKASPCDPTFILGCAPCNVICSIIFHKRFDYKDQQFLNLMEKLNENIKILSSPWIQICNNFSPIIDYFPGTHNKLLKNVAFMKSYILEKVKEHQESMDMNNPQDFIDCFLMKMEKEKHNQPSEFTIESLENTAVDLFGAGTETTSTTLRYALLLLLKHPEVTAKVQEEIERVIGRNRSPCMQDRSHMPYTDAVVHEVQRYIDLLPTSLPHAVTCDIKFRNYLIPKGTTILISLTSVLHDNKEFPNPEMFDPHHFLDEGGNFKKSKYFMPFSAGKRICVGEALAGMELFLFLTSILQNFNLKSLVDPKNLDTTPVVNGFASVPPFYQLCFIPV

Regarding `CC(C(=O)O)c1ccc(-c2ccccc2)c(F)c1` (racemic) [flurbiprofen, (R,S)-(2-fluoro-biphenylyl)propionic acid, reference compound], the “inhibition of the metabolism of drugs that are substrates of CYP2C9” value in series [1] is “inhibit the metabolism”.

For `COc1ccc2cc([C@H](C)C(=O)O)ccc2c1` [Naproxen], in series [2], the “efficacy for treating AD” value is “failed to show efficacy”.

The term AUC denotes the area under the concentration-time curve, a measure of exposure. A low value points to less exposure. As a reminder, the Tmax is the time at which the peak concentration occurs. As for `C[C@@H](C(=O)O)c1ccc(-c2ccccc2)c(F)c1` [R-flurbiprofen], in series [1], the “inhibition of the metabolism of drugs that are substrates of CYP2C9” value was “inhibit the metabolism”. In addition, the values for the AUC in series [3] (setting [8]), in series [3] (setting [9]) and in series [3] (setting [10]) were 246 µg·h/mL, 577 µg·h/mL and 487 µg·h/mL, respectively. The CL_F amounted to 812 mL/h in series [3] (setting [8]), 693 mL/h in series [3] (setting [9]) and 1642 mL/h in series [3] (setting [10]). In addition, the K10_HL in series [3] (setting [8]) came to 6.56 h; in series [3] (setting [9]) it was 8.04 h; in series [3] (setting [10]), 5.90 h. The values for the time to peak (Tmax) in series [3] (setting [8]), in series [3] (setting [9]) and in series [3] (setting [10]) were 2.28 h, 1.58 h and 0.86 h, respectively. The “effect on Aβ42” value in series [4] and in series [5] was “lower Aβ42” in each case. The “inhibition of COX activity” value in series [6] was “negligibly inhibits”.

For the molecule `CS(=O)(=O)c1ccc(C2=C(c3ccccc3)C(=O)OC2)cc1` [rofecoxib], the “prevention of the development of Alzheimer's disease” value in series [7] (large prevention clinical trial) is reported as “failed to prevent the development of Alzheimer's disease”. Besides, the “patients who developed AD” value in series [7] (large prevention trial, 4.5% for placebo) was 6.4%. In addition, the “efficacy for treating AD” value in series [2] is recorded as “failed to show efficacy”.
